Data reported in paper PMC5045939, “Comparison of [^11C]TZ1964B and [^18F]MNI659 for PET imaging brain PDE10A in nonhuman primates” (Pharmacology Research & Perspectives, 2016).
Where “and” joins values, the source holds several entries; their conditions need not be identical. Equal entries are not always repeated. Where two headings read alike, the source gives them in different places.

Tests used:
PDE10A [1] = conditions: cited from earlier work
[2] = Log P measurement, 1-octanol/PBS pH 7.4; format: physicochemical; conditions: 1-octanol / 0.1 mol/L PBS pH 7.4, Log D7.4 taken as Log P
Description: Log P was measured according to the previous report (Li et al. 2013b), by adding different volumes of [^11C]TZ1964B or [^18F]MNI659 into a mixture of 1‐octanol (3 mL) and 0.1 mol/L phosphate‐buffered saline (PBS, pH 7.4, 3 mL). The mixture was vortexed and then centrifuged. Then, 2 mL organic layer was mixed with 1 mL 1‐octanol and 3 mL PBS buffer. The resulting mixture was vortexed and centrifuged again. Then 1 mL of the organic layer and 1 mL of the aqueous layer were separated and loaded in a gamma counter. The results were corrected for background radiation and physical decay. The partition coefficient Log D7.4, which equals Log P, was calculated as the decimal logarithm the ratio of cpm/mL of 1‐octanol to that of PBS.

PDE10A [3] = conditions: cited from earlier work; remark: listed apart in the source
PDE10A [4] = test: microPET imaging of NHP brain, reference-based kinetic analysis and AUC ratio; format: in vivo, cynomolgus monkey; conditions: for AUC ratio: 60-120 min; for AUC ratio / BPND-Logan / BPND-SRTM / AUC ratio (Stri/Cere) / R1 / k2: mean ± SD; for AUC ratio (Stri/Cere): NHP striatum to cerebellum, 60-120 min data; for time of peak (max SUV) striatal uptake: post injection, averaged SUV curves
Description: PET imaging studies were carried out on two adult male cynomolgus monkeys, weighing on 7–8 kg. Subject A underwent three sets of double scans, and Subject B underwent one set of double scans. Animals were prepared for microPET studies as previously reported (Liu et al. 2015). About 1.5–2.5% isoflurane inhalation anesthesia was maintained throughout the microPET imaging sessions. A 20‐gage plastic catheter was inserted into a limb vein to permit hydration and injection of the radiotracer. Arterial blood was collected through another 20‐gage plastic catheter which was placed into a femoral artery.
The imaging studies of [^11C]TZ1964B and [^18F]MNI659 in the NHP brain through double scans were done using a MicroPET Focus 220 scanner (Concorde/CTI/Siemens Microsystems, Knoxville, TN). For all the double scans, [^11C]TZ1964B studies were performed in the morning and [^18F]MNI659 in the afternoon, with an interval of ~3 h between the injection of each tracer. Prior to each PET acquisition, a 45‐min transmission scan for attenuation correction was performed following a 10 min transmission that was used to check the position of the brain within the scanner. Subsequently, 296–370 MBq of [^11C]TZ1964B or [^18F]MNI659 was intravenously injected, and a 120 min dynamic (3 × 1‐min frames, 4 × 2‐min frames, 3 × 3‐min frames, and 20 × 5‐min frames) PET scan was acquired.
The PET images were processed according to the previous report (Liu et al. 2015). Briefly, emission scans were corrected and reconstructed using filtered back projection as described previously (Miller et al. 1989). The final reconstructed resolution was 2.00 mm full width at half maximum (FWHM) for all three dimensions (axial) at center of the field of view. The actual field of view is 25.8 cm diameter and a 7.6 cm axial length. The reconstructed PET images was co‐registered with magnetization‐prepared rapid gradient echo (MP‐RAGE) MR images using Automated Image Registration (AIR) (Woods et al. 1993), and superimposed using Analyze 10.0 (AnalyzeDirect, Overland Park, KS) for quality control. For quantitative analyses, three‐dimensional regions of interest (ROIs) for cerebellum (Subject A: 583 voxels; Subject B: 750 voxels, the voxel size is 1.858 mm × 1.858 mm × 0.796 mm = 2.75 μL), striatum (A: 695 voxels; B: 1158 voxels), frontal cortex (A: 263 voxels; B: 225 voxels), midbrain (A: 64 voxels; B: 118 voxels), and hippocampus (A: 68 voxels; B: 64 voxels) were identified on MRI images and then transformed into PET images using the co‐registration transformation matrix. The ROIs for each animal were kept fixed for all subsequent studies once identified on a baseline scan. Time–activity curves (TACs) for each ROI were then obtained from the dynamic PET images. Standardized uptake value (SUV) of each tracer was calculated and standardized to the body weight and the injected dose of radioactivity.
Regional tracer uptake was quantified using two different reference‐based kinetic methods: Logan Reference (LoganREF) model (Logan et al. 1990, 1996; Innis et al. 2007; Liu et al. 2015) and simplified reference tissue model (SRTM) (Lammertsma and Hume 1996; Gunn et al. 1997; Innis et al. 2007; Liu et al. 2015). According to the LoganREF model, the distribution volume ratio (DVR) of each ROI was calculated using a MATLAB (Mathworks Inc., Natick, MA). The nondisplaceable binding potential (BPND) was then estimated: BPND = DVR‐1. BPND and R1, k 2 values were also obtained from the SRTM model (Lammertsma and Hume 1996; Watabe et al. 1996).
We also calculated the area under the time–activity curve (AUC) for the striatal to cerebellar ratio (AUC‐striatum/AUC‐cerebellum); this is a simple model and input function‐independent method to quantify an index of tracer accumulation in the brain (Muller Herde et al. 2015). […] Ideally, the AUC ratio equals the DVR determined by LoganREF model (Muller Herde et al. 2015). […]

[5] = radiometabolite analysis of NHP arterial plasma by HPLC; format: in vivo, cynomolgus monkey; conditions: 60 min post injection, n = 1
Description: The radiometabolite analysis was performed according to previous reports (Tu et al. 2011, 2015). Arterial blood samples (1.2–1.5 mL) were collected in a heparinized syringe at 2, 5, 15, 30, and 60 min (for [^11C]TZ1964B) or 5, 15 30, 60, 90, and 120 min (for [^18F]MNI659) postinjection of each radiotracer. Plasma (400 μL) was collected by centrifugation of the whole blood and mixed with ice‐cold methanol (0.92 mL) to deproteinate and extract the parent compound and radiolabeled metabolites. After centrifugation, the supernatant was mixed with water (1/1, v/v), and loaded onto a HPLC system with an Agilent SB C‐18 analytical HPLC column (250 mm × 4.6 mm, 5 μ) and a UV detector with 254 nm wavelength. The mobile phase was acetonitrile/0.1 mol/L ammonium formate buffer pH 4.5, (52/48, v/v) with a flow rate of 1.0 mL/min. The eluted fractions were collected for 16 min at 1 min intervals; the radioactivity of in each fraction was counted in a well counter, and results were corrected for background radiation and physical decay.

[6] = Figure 1, no reference given, read-out: Kd
[7] = NHP frontal cortex to cerebellum
[8] = NHP midbrain to cerebellum, n = 4 scans in 2 NHPs
[9] = NHP striatum, LoganREF model, cerebellum reference, n = 4 scans in 2 NHPs
[10] = NHP striatum, SRTM, cerebellum reference, n = 4 scans in 2 NHPs

logP [2] | time of peak (max SUV) striatal uptake (PDE10A [4]; NHP striatum) | percentage of parent compound in plasma [5] | Structure (SMILES) | Kd (PDE10A [1]; [6]) [nM] | AUC ratio (PDE10A [4]; [7]) | BPND-Logan (PDE10A [4]; NHP frontal cortex) | BPND-SRTM (PDE10A [4]; NHP frontal cortex) | AUC ratio (PDE10A [4]; NHP hippocampus to cerebellum) | BPND-Logan (PDE10A [4]; NHP hippocampus) | BPND-SRTM (PDE10A [4]; NHP hippocampus) | AUC ratio (PDE10A [4]; [8]) | BPND-Logan (PDE10A [4]; NHP midbrain) | BPND-SRTM (PDE10A [4]; NHP midbrain) | AUC ratio (Stri/Cere) (PDE10A [4]; n = 4 scans in 2 NHPs) | BPND-Logan (PDE10A [4]; [9]) | BPND-SRTM (PDE10A [4]; [10]) | R1 (PDE10A [4]; NHP striatum, SRTM) | k2 (PDE10A [4]; NHP striatum, SRTM) [min⁻¹] | also measured
1.98 |  |  | Cc1ccc2c(=O)n(-c3ccc(OCCF)cc3)c(CCN3C(=O)c4cccc(OC(C)C)c4C3=O)nc2c1 [MNI659] |  |  |  |  |  |  |  |  |  |  |  |  |  |  |  | Kd (PDE10A [1]; in vitro, given as Kd in Figure 1, ref Barret et al. 2014, read-out: binding potency for PDE10A): 0.097 nM
1.98 |  |  | COc1cc2ccccc2nc1COc1ccc(-c2nn(C)cc2-c2ccncc2)cc1 [TZ1964B] |  |  |  |  |  |  |  |  |  |  |  |  |  |  |  | IC50 (PDE10A [3]; in vitro binding potency, ref Li et al. 2013a, read-out: IC50 toward PDE10A): 0.4 ± 0.02 nM
1.98 ± 0.09 | 40 to 60 min | ~ 70% | Cn1cc(-c2ccncc2)c(-c2ccc(OCc3nc4ccccc4cc3O[11CH3])cc2)n1 [[^11C]TZ1964B, 3‐[^11C]methoxy‐2‐((4‐(1‐methyl‐4‐(pyridin‐4‐yl)‐1H‐pyrazol‐3‐yl)phenoxy)methyl)‐quinoline] | 1.25 ± 0.2 | 1.38 ± 0.13 | 0.15 ± 0.05 | 0.43 ± 0.28 | 1.35 ± 0.41 | 0.11 ± 0.25 | 0.32 ± 0.50 | 1.51 ± 0.47 | 0.26 ± 0.20 | 0.57 ± 0.30 | 5.87 and 5.87 ± 0.45 | 3.72 and 3.72 ± 0.62 | 4.39 and 4.39 ± 0.39 | 1.16 ± 0.17 | 0.13 ± 0.017 | Ki (PDE10A [3]; Figure 1, no reference given): 0.4 ± 0.02 nM
1.98 ± 0.06 | about 10 min | ~ 50% | Cc1ccc2c(=O)n(-c3ccc(OCC[18F])cc3)c(CCN3C(=O)c4cccc(OC(C)C)c4C3=O)nc2c1 [[^18F]MNI659, 2‐(2‐(3‐(4‐(2‐[^18F]fluoroethoxy)phenyl)‐7‐methyl‐4‐oxo‐3,4‐dihydroquinazolin‐2‐yl)ethyl)‐4‐isopropoxyisoindoline‐1,3‐dione] | 0.097 | 1.37 ± 0.12 | 0.29 ± 0.10 | 0.29 ± 0.09 | 1.08 ± 0.23 | 0.11 ± 0.18 | 0.16 ± 0.20 | 2.59 ± 0.42 | 1.02 ± 0.14 | 1.11 ± 0.16 | 7.60 and 7.60 ± 2.68 | 5.08 and 5.08 ± 1.62 | 5.33 and 5.33 ± 1.36 | 1.20 ± 0.20 | 0.28 ± 0.13 | striatal K2 value relative to [^11C]TZ1964B (PDE10A [4]; NHP striatum, SRTM): twofold
